Experimental data from PubChem BioAssay (NCI).
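Protocol summary: plate cells (96-well), add compound at 5 concentrations, incubate 48 h, interpolate endpoints linearly. At the GI50, growth is halved. TGI: total growth inhibition.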

How the values were obtained:
Assay in all cases: inhibition of tumour cell growth, NCI panel, 48 h
[1] = test system: 786-0 renal
[2] = test system: A498 renal
[3] = test system: A549 NSCLC
[4] = test system: ACHN renal
[5] = test system: BT-549 breast
[6] = test system: CAKI-1 renal
[7] = test system: CCRF-CEM leukemia
[8] = test system: COLO 205 colon
[9] = test system: DU-145 prostate
[10] = test system: EKVX NSCLC
[11] = test system: HCC-2998 colon
[12] = test system: HCT-116 colon
[13] = test system: HCT-15 colon
[14] = test system: HL-60(TB) leukemia
[15] = test system: HOP-62 NSCLC
[16] = test system: HOP-92 NSCLC
[17] = test system: HS 578T breast
[18] = test system: HT29 colon
[19] = test system: IGROV1 ovarian
[20] = test system: K-562 leukemia
[21] = test system: KM12 colon
[22] = test system: LOX IMVI melanoma
[23] = test system: M14 melanoma
[24] = test system: MCF7 breast
[25] = test system: MDA-MB-231 breast
[26] = test system: MDA-MB-435
[27] = test system: MOLT-4 leukemia
[28] = test system: NCI-H226 lung
[29] = test system: NCI-H23 lung
[30] = test system: NCI-H460 lung
[31] = test system: NCI-H522 lung
[32] = test system: NCI/ADR-RES ovarian
[33] = test system: OVCAR-3 ovarian
[34] = test system: OVCAR-4 ovarian
[35] = test system: OVCAR-5 ovarian
[36] = test system: OVCAR-8 ovarian
[37] = test system: PC-3 prostate
[38] = test system: RPMI-8226 leukemia
[39] = test system: RXF 393 renal
[40] = test system: SF-268 CNS
[41] = test system: SF-295 CNS
[42] = test system: SF-539 CNS
[43] = test system: SK-MEL-2 melanoma
[44] = test system: SK-MEL-28 melanoma
[45] = test system: SN12C renal
[46] = test system: SNB-19 CNS
[47] = test system: SNB-75 CNS
[48] = test system: SR leukemia
[49] = test system: SW-620 colon
[50] = test system: T-47D breast
[51] = test system: TK-10 renal
[52] = test system: U251 CNS
[53] = test system: UACC-257 melanoma
[54] = test system: UACC-62 melanoma
[55] = test system: UO-31 renal
[56] = test system: SK-MEL-5 melanoma
[57] = test system: SK-OV-3 ovarian
[58] = test system: MALME-3M melanoma

COC1C(O)CC(OC2CC(OC3CC(O[C@@H]4C(=O)c5c(cc6cc(OC7CC(OC8CC(O)C(O)C(C)O8)C(O)C(C)O7)c(C)c(O)c6c5O)CC4[C@H](OC)C(=O)C(C)=O)OC(C)C3O)OC(C)C2O)OC1C (stereo partly specified)
GI50 [1]: 33.1 nM
TGI [1]: > 33.3 µM
GI50 [2]: 23.3 nM
TGI [2]: 88.4 nM
GI50 [3]: 15.9 nM
TGI [3]: > 33.3 µM
GI50 [4]: 0.052 µM
TGI [4]: > 33.3 µM
GI50 [5]: 10 nM
TGI [5]: 0.0335 µM
GI50 [6]: 0.0415 µM
TGI [6]: > 33.3 µM
GI50 [7]: 15.6 nM
TGI [7]: 0.673 µM
GI50 [8]: 12.1 nM
TGI [8]: 0.0319 µM
GI50 [9]: 15.5 nM
TGI [9]: > 32.2 µM
GI50 [10]: 20.1 nM
TGI [10]: > 33.3 µM
GI50 [11]: 0.0106 µM
TGI [11]: 0.0402 µM
GI50 [12]: 11.2 nM
TGI [12]: > 33.3 µM
GI50 [13]: 101 nM
TGI [13]: > 33.3 µM
GI50 [14]: 0.0159 µM
TGI [14]: 0.0594 µM
GI50 [15]: 0.00895 µM
TGI [15]: 0.0269 µM
GI50 [16]: 10.8 nM
TGI [16]: 0.0669 µM
GI50 [17]: 11.1 nM
TGI [17]: > 11.3 µM
GI50 [18]: 12.2 nM
TGI [18]: 0.0535 µM
GI50 [19]: 15.9 nM
TGI [19]: > 33.3 µM
GI50 [20]: 15.8 nM
GI50 [21]: 10.9 nM
TGI [21]: > 16 µM
GI50 [22]: 8.5 nM
TGI [22]: 0.0229 µM
GI50 [23]: 8.43 nM
TGI [23]: 0.0214 µM
GI50 [24]: 10.8 nM
TGI [24]: > 33.3 µM
GI50 [25]: 49.5 nM
TGI [25]: > 33.3 µM
GI50 [26]: 14.9 nM
TGI [26]: 0.0343 µM
GI50 [27]: 12.3 nM
TGI [27]: 0.0607 µM
GI50 [28]: 13.2 nM
GI50 [29]: 0.0125 µM
TGI [29]: 0.0661 µM
GI50 [30]: 12 nM
TGI [30]: > 33.3 µM
GI50 [31]: 8.77 nM
TGI [31]: 0.0321 µM
GI50 [32]: 0.433 µM
TGI [32]: > 33.3 µM
GI50 [33]: 13.1 nM
TGI [33]: 0.0673 µM
GI50 [34]: 24.5 nM
TGI [34]: 10.8 µM
GI50 [35]: 23.4 nM
TGI [35]: > 33.3 µM
GI50 [36]: 0.0132 µM
TGI [36]: > 33.3 µM
GI50 [37]: < 0.0142 µM
TGI [37]: > 22.6 µM
GI50 [38]: 0.0106 µM
TGI [38]: 0.206 µM
GI50 [39]: 25.2 nM
TGI [39]: 0.103 µM
GI50 [40]: 13.7 nM
TGI [40]: 0.138 µM
GI50 [41]: 11 nM
GI50 [42]: 9.76 nM
TGI [42]: 0.0274 µM
GI50 [43]: 9.27 nM
TGI [43]: 0.0275 µM
GI50 [44]: 10.6 nM
TGI [44]: 0.0528 µM
GI50 [45]: 13.8 nM
TGI [45]: > 33.3 µM
GI50 [46]: 10.5 nM
TGI [46]: > 33.3 µM
GI50 [47]: 0.00678 µM
TGI [47]: 0.02 µM
GI50 [48]: 9.1 nM
TGI [48]: 0.0645 µM
GI50 [49]: 15.5 nM
TGI [49]: > 33.3 µM
GI50 [50]: 12 nM
TGI [50]: 79.1 nM
GI50 [51]: 20.4 nM
TGI [51]: 75.8 nM
GI50 [52]: < 0.0106 µM
TGI [52]: > 33.3 µM
GI50 [53]: 10.7 nM
TGI [53]: 41.4 nM
GI50 [54]: 7.19 nM
TGI [54]: 16.7 nM
GI50 [55]: < 0.02 µM

C=C1C(=O)OC2C1C(=O)C/C(C)=C/CCC1(C)OC21 (stereo unspecified)
TGI [1]: 31.8 µM
TGI [2]: 49600 nM
TGI [3]: 37.8 µM
TGI [4]: 22.2 µM
TGI [5]: 54.6 µM
TGI [6]: 28.6 µM
TGI [7]: > 100 µM
TGI [8]: 18 µM
TGI [9]: 32.1 µM
TGI [10]: 61.2 µM
TGI [11]: 35.3 µM
TGI [12]: 33.5 µM
TGI [13]: 28.6 µM
TGI [14]: 7.23 µM
TGI [15]: 28 µM
TGI [16]: 41.7 µM
TGI [17]: > 100 µM
TGI [18]: 43.2 µM
TGI [19]: 44.9 µM
TGI [20]: 74 µM
TGI [21]: 53.3 µM
TGI [22]: 36.7 µM
TGI [23]: 31.7 µM
TGI [24]: 29.2 µM
TGI [25]: 38.3 µM
TGI [26]: 31.1 µM
TGI [27]: 47 µM
TGI [28]: 39.2 µM
TGI [29]: 38.8 µM
TGI [30]: 39.7 µM
TGI [31]: 12 µM
TGI [32]: 99.4 µM
TGI [33]: 31.8 µM
TGI [34]: 46 µM
TGI [35]: 33 µM
TGI [36]: 56.2 µM
TGI [37]: 33.3 µM
TGI [38]: 31.7 µM
TGI [39]: 31.9 µM
TGI [40]: 50.8 µM
TGI [41]: > 100 µM
TGI [42]: 29.3 µM
TGI [43]: 35.8 µM
TGI [44]: 31.6 µM
TGI [56]: 34.5 µM
TGI [57]: > 100 µM
TGI [45]: 42.6 µM
TGI [46]: > 100 µM
TGI [47]: 46.7 µM
TGI [48]: > 100 µM
TGI [49]: 40.8 µM
TGI [50]: 32200 nM
TGI [51]: 30800 nM
TGI [52]: 37.7 µM
TGI [53]: 41300 nM
TGI [54]: 66800 nM
TGI [55]: 28.4 µM

CCN(Cc1cccnc1)c1ccc(CO)c(Cl)c1
GI50 [1]: > 45500 nM
TGI [1]: > 100 µM
GI50 [2]: 79.7 nM
TGI [2]: 236 nM
GI50 [3]: 5730 nM
TGI [3]: > 75.8 µM
GI50 [4]: 97.7 µM
TGI [4]: > 100 µM
GI50 [5]: > 94300 nM
TGI [5]: > 100 µM
GI50 [6]: 22.5 µM
TGI [6]: > 100 µM
GI50 [7]: > 96000 nM
TGI [7]: > 100 µM
GI50 [8]: 1420 nM
TGI [8]: 5.33 µM
GI50 [9]: > 81300 nM
TGI [9]: > 100 µM
GI50 [11]: 10.4 µM
TGI [11]: > 100 µM
GI50 [12]: 298 nM
TGI [12]: > 100 µM
GI50 [13]: > 88800 nM
TGI [13]: > 100 µM
GI50 [14]: 22.6 µM
TGI [14]: > 100 µM
GI50 [15]: 7.3 µM
TGI [15]: > 100 µM
GI50 [16]: 3210 nM
TGI [16]: 66.4 µM
GI50 [17]: > 100000 nM
TGI [17]: > 100 µM
GI50 [18]: 4670 nM
TGI [18]: > 100 µM
GI50 [19]: 241 nM
TGI [19]: 1.12 µM
GI50 [20]: 5580 nM
TGI [20]: > 100 µM
GI50 [21]: > 100000 nM
TGI [21]: > 100 µM
GI50 [22]: > 100000 nM
TGI [22]: > 100 µM
GI50 [23]: > 100000 nM
TGI [23]: > 100 µM
GI50 [58]: > 100 µM
TGI [58]: > 100 µM
GI50 [24]: 459 nM
TGI [24]: > 100 µM
GI50 [25]: > 95800 nM
TGI [25]: > 100 µM
GI50 [26]: > 100000 nM
TGI [26]: > 100 µM
GI50 [27]: > 94900 nM
TGI [27]: > 100 µM
GI50 [28]: 88.5 nM
TGI [28]: 0.269 µM
GI50 [29]: 45 µM
TGI [29]: > 100 µM
GI50 [30]: 555 nM
TGI [30]: 8.66 µM
GI50 [31]: > 100000 nM
TGI [31]: > 100 µM
GI50 [32]: 36.5 µM
TGI [32]: > 100 µM
GI50 [33]: 1130 nM
TGI [33]: 5.36 µM
GI50 [34]: 433 nM
TGI [34]: 4.63 µM
GI50 [35]: 244 nM
TGI [35]: 0.915 µM
GI50 [36]: 34.9 µM
TGI [36]: > 100 µM
GI50 [37]: 58.4 µM
TGI [37]: > 100 µM
GI50 [38]: 11.1 µM
TGI [38]: > 100 µM
TGI [39]: > 100 µM
GI50 [40]: > 100000 nM
TGI [40]: > 100 µM
GI50 [41]: 1060 nM
TGI [41]: > 100 µM
GI50 [42]: > 100000 nM
TGI [42]: > 100 µM
GI50 [43]: > 37000 nM
TGI [43]: > 100 µM
GI50 [44]: > 100000 nM
TGI [44]: > 100 µM
GI50 [56]: 15.1 µM
TGI [56]: > 60.2 µM
GI50 [57]: 23.5 µM
TGI [57]: > 100 µM
GI50 [45]: > 87500 nM
TGI [45]: > 100 µM
GI50 [46]: > 100000 nM
TGI [46]: > 100 µM
GI50 [47]: 65.9 µM
TGI [47]: > 100 µM
GI50 [48]: > 100000 nM
TGI [48]: > 100 µM
GI50 [49]: 3660 nM
TGI [49]: > 100 µM
GI50 [50]: 269 nM
TGI [50]: 1540 nM
GI50 [51]: 120 nM
TGI [51]: 333 nM
GI50 [52]: 3.75 µM
TGI [52]: > 100 µM
GI50 [53]: 195 nM
TGI [53]: 621 nM
GI50 [54]: 289 nM
TGI [54]: 2050 nM
GI50 [55]: 20 µM
TGI [55]: > 100 µM
